The source of these data is patent US8119681B2, “2-[1-phenyl-5-hydroxy or methoxy-4alpha-methyl-hexahydrocyclopenta [ƒ]indazole-5-YL]ethyl phenyl derivatives as glucocorticoid receptor ligands” (Merck Sharp & Dohme Corp., priority 2006, dated 2012).

Assay [1] deals with T1, human GR (Homo sapiens, UniProt P04150).
T1 sequence (P04150 1-777): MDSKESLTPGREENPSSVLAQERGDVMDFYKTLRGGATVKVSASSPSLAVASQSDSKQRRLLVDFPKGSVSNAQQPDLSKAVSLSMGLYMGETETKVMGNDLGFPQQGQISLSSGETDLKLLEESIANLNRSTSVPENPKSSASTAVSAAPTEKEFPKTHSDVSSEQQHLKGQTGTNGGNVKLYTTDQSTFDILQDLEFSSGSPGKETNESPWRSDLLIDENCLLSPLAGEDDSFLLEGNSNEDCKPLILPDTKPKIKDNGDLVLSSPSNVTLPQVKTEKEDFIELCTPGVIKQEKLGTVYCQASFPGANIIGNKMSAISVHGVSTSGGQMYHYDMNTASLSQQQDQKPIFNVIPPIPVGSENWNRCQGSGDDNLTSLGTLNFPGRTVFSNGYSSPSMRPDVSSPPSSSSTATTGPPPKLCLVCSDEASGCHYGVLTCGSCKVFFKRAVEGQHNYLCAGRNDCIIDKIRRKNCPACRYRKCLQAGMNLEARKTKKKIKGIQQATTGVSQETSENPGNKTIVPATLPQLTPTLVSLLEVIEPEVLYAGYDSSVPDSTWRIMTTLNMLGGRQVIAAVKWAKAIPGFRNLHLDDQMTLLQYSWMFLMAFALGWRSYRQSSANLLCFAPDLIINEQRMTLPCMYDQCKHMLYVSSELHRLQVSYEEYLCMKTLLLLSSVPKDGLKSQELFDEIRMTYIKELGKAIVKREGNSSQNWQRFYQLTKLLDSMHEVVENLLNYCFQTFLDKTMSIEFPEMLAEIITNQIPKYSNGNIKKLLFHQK
Briefly: Transrepression Assay (GITAR), TNFα-β-lactamase reporter gene in U937 cells. The note with it: for EC50: IP = inflection point, read-out: Transrepression U937 Cells GITAR IP; for GITAR > GRAMM % SEP: separation of GITAR Emax over GRAMMER Emax; for Emax: U-937. On the set-up: U937 cells contain an endogenous glucocorticoid receptor (GR); endogenous in cells; host or cells: U937 cells stably transfected with the TNF-α promoter/β-lactamase reporter only. In kind it is cell-based. The procedure, abridged: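 Reporter readout used CCF2-AM loading for 70–90 min at room temperature after overnight (~18 h, 37 °C) PMA (5 ng/ml final) and LPS (100 ng/ml final) stimulation of compound-treated (30–45 min) TNFα-β-lactamase U937 cells expressing native GR. Activity was normalised to 100 nM dexamethasone repression.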
On the technique in general: Reporter assays use an easily measured gene product as a stand-in for the process of interest.

The target of assay [2] is T1, human GR. Briefly: Trans-Activation Modulation of Glucocorticoid Receptor (GRAMMER), MMTV-LUC reporter gene. Type of assay: cell-based. The note with it: for Emax: A549, read-out: Transactivation A549 Cells GRAMMER Emax (%); for EC50: Table 1, A549 cells, IP = inflection point, read-out: Transactivation A549 Cells GRAMMER IP. On the set-up: endogenous in cells.
[3] abbreviates: 100 nM dexamethasone = 100% activity, read-out: maximal activity in the transrepression assay.
Where [4] appears, read: Table 1, U937 cells, activity repressed by 100 nM dexamethasone = 100%, read-out: Transrepression U937 Cells GITAR Emax (%).

On to `C[C@]12Cc3cnn(-c4ccc(F)cc4)c3C=C1CC[C@@]2(O)CCc1cccc(F)c1CNS(=O)(=O)CC(F)(F)F` [Example 86, 2,2,2-trifluoro-N-(2-fluoro-6-{2-[(4αS,5R)-1-(4-fluorophenyl)-5-hydroxy-4α-methyl-1,4,4α,5,6,7-hexahydrocyclopenta[f]indazol-5-yl]ethyl}benzyl)ethanesulfonamide], for which the EC50 worked out at 246 nM on human GR [1] (Table 1, U937 cells) and 211 nM at human GR [2]. Moreover, the “GITAR > GRAMM % SEP” value on human GR [1] (Table 1) was 53%. Besides, the Emax on human GR [1] (setting [3]) was 5 to 100%; on human GR [1] (setting [4]), 66%; on human GR [2], 13%.
On to `C[C@]12Cc3cnn(-c4ccc(F)cc4)c3C=C1CC[C@@]2(O)CCc1cccc(F)c1CNS(=O)(=O)C1CC1` [Example 88, N-(2-fluoro-6-{2-[(4αS,5R)-1-(4-fluorophenyl)-5-hydroxy-4α-methyl-1,4,4α,5,6,7-hexahydrocyclopenta[f]indazol-5-yl]ethyl}benzyl)cyclopropanesulfonamide], for which the EC50 on human GR [1] (Table 1, U937 cells) worked out at 90 nM; at human GR [2], 53 nM. Further, at human GR [1] (Table 1), the “GITAR > GRAMM % SEP” value is on record as 37%. For the same compound, the Emax at human GR [1] (setting [3]) was 5 to 100%; at human GR [1] (setting [4]), 69%; at human GR [2], 32%.
Take `CN(C)S(=O)(=O)NCc1c(F)cccc1CC[C@]1(O)CCC2=Cc3c(cnn3-c3ccc(F)cc3)C[C@@]21C` [Example 89, N′-(2-fluoro-6-{2-[(4αS,5R)-1-(4-fluorophenyl)-5-hydroxy-4α-methyl-1,4,4α,5,6,7-hexahydrocyclopenta[f]indazol-5-yl]ethyl}benzyl)-N,N-dimethylsulfamide]: the EC50 turned out to be 64 nM at human GR [1] (Table 1, U937 cells) and 43 nM on human GR [2]. The “GITAR > GRAMM % SEP” value at human GR [1] (Table 1) turned out to be 50%. For the same compound, the values for the Emax on human GR [1] (setting [3]), on human GR [1] (setting [4]) and on human GR [2] were 5 to 100%, 70% and 20%, respectively.
As to `C[C@]12Cc3cnn(-c4ccc(F)cc4)c3C=C1CC[C@@]2(O)CCc1ccccc1C1(NS(=O)(=O)C2CC2)CC1` [Example 91, N-[1-(2-{2-[(4αS,5R)-1-(4-fluorophenyl)-5-hydroxy-4α-methyl-1,4,4α,5,6,7-hexahydrocyclopenta[f]indazol-5-yl]ethyl}phenyl)cyclopropyl]cyclopropanesulfonamide], the EC50 on human GR [1] (Table 1, U937 cells) came to 231 nM; at human GR [2], 121 nM. For the same compound, at human GR [1] (Table 1), the “GITAR > GRAMM % SEP” value is recorded as 26%. The Emax on human GR [1] (setting [4]) worked out at 72%; at human GR [2] it was 46%.
As to `C[C@]12Cc3cnn(-c4ccc(F)cc4)c3C=C1CC[C@@]2(O)CCc1ccccc1CC(N)=O` [Example 107, 2-(2-{2-[(4αS,5R)-1-(4-fluorophenyl)-5-hydroxy-4α-methyl-1,4,4α,5,6,7-hexahydrocyclopenta[f]indazol-5-yl]ethyl}phenyl)acetamide], the EC50 turned out to be 217 nM on human GR [1] (Table 1, U937 cells) and 261 nM at human GR [2]. Moreover, the “GITAR > GRAMM % SEP” value on human GR [1] (Table 1) is 29%. Moreover, the Emax on human GR [1] (setting [3]) is 5 to 100%; at human GR [1] (setting [4]), 66%; at human GR [2], 37%.
Take `CN(C)S(=O)(=O)Nc1c(F)cccc1CC[C@]1(O)CCC2=Cc3c(cnn3-c3ccc(F)cc3)C[C@@]21C` [Example 113, N′-(2-fluoro-6-{2-[(4αS,5R)-1-(4-fluorophenyl)-5-hydroxy-4α-methyl-1,4,4α,5,6,7-hexahydrocyclopenta[f]indazol-5-yl]ethyl}phenyl)-N,N-dimethylsulfamide]: the EC50 on human GR [1] (Table 1, U937 cells) was 207 nM; at human GR [2], 205 nM. The “GITAR > GRAMM % SEP” value on human GR [1] (Table 1) was 39%. The Emax was 5 to 100% at human GR [1] (setting [3]), 71% at human GR [1] (setting [4]) and 32% at human GR [2].
On to `CCS(=O)(=O)Nc1ccccc1CC[C@]1(O)CCC2=Cc3c(cnn3-c3ccc(F)cc3)C[C@@]21C` [Example 114, N-(2-{2-[(4αS,5R)-1-(4-fluorophenyl)-5-hydroxy-4α-methyl-1,4,4α,5,6,7-hexahydrocyclopenta[f]indazol-5-yl]ethyl}phenyl)ethanesulfonamide], for which the EC50 worked out at 199 nM on human GR [1] (Table 1, U937 cells) and 221 nM on human GR [2]. Moreover, the “GITAR > GRAMM % SEP” value on human GR [1] (Table 1) is listed as 34%. The values for the Emax on human GR [1] (setting [3]), at human GR [1] (setting [4]) and on human GR [2] were 5 to 100%, 78% and 43%, respectively.
Consider `CN(C)S(=O)(=O)c1ccccc1CC[C@]1(O)CCC2=Cc3c(cnn3-c3ccc(F)cc3)C[C@@]21C` [Example 138, 2-{2-[(4αS,5R)-1-(4-fluorophenyl)-5-hydroxy-4α-methyl-1,4,4α,5,6,7-hexahydrocyclopenta[f]indazol-5-yl]ethyl}-N,N-dimethylbenzenesulfonamide], for which the EC50 stood at 212 nM on human GR [1] (Table 1, U937 cells) and 137 nM at human GR [2]. In addition, the “GITAR > GRAMM % SEP” value at human GR [1] (Table 1) stood at 17%. Besides, the Emax was 5 to 100% at human GR [1] (setting [3]), 72% at human GR [1] (setting [4]) and 55% on human GR [2].
Consider `CCS(=O)(=O)c1ccccc1CC[C@]1(O)CCC2=Cc3c(cnn3-c3ccc(F)cc3)C[C@@]21C` [Example 143, (4αS,5R)-5-{2-[2-(ethylsulfonyl)phenyl]ethyl}-1-(4-fluorophenyl)-4α-methyl-1,4,4α,5,6,7-hexahydrocyclopenta[f]indazol-5-ol], for which the EC50 on human GR [1] (Table 1, U937 cells) came out at 194 nM; on human GR [2], 118 nM. Besides, on human GR [1] (Table 1), the “GITAR > GRAMM % SEP” value is listed as 29%. Further, the figures for the Emax on human GR [1] (setting [3]), on human GR [1] (setting [4]) and on human GR [2] were 5 to 100%, 70% and 41%, respectively.
Take `C[C@]12Cc3cnn(-c4ccc(F)cc4)c3C=C1CC[C@@]2(O)CCc1ccccc1S(=O)(=O)C1CC1` [Example 144, (4αS,5R)-5-{2-[2-(cyclopropylsulfonyl)phenyl]ethyl}-1-(4-fluorophenyl)-4α-methyl-1,4,4α,5,6,7-hexahydrocyclopenta[f]indazol-5-ol]: the EC50 is 212 nM at human GR [1] (Table 1, U937 cells) and 268 nM on human GR [2]. Further, the Emax at human GR [1] (setting [3]) is 5 to 100%; on human GR [1] (setting [4]), 70%; at human GR [2], 40%.
For the compound `C[C@]12Cc3cnn(-c4ccc(F)cc4)c3C=C1CC[C@@]2(O)CCc1cccc(F)c1CO` [Example 148, (4αS,5R)-5-{2-[3-fluoro-2-(hydroxymethyl)phenyl]ethyl}-1-(4-fluorophenyl)-4α-methyl-1,4,4α,5,6,7-hexahydrocyclopenta[f]indazol-5-ol], the EC50 at human GR [1] (Table 1, U937 cells) is 46 nM; at human GR [2], 43 nM. Besides, at human GR [1] (Table 1), the “GITAR > GRAMM % SEP” value was found to be 18%. Further, the Emax is 5 to 100% at human GR [1] (setting [3]), 75% at human GR [1] (setting [4]) and 57% on human GR [2].
As for `C[C@]12Cc3cnn(-c4ccc(F)cc4)c3C=C1CC[C@@]2(O)CCc1cccc(F)c1[C@H](N)C(F)(F)F` [Example 151, (4αS,5R)-5-(2-{2-[(1S)-1-amino-2,2,2-trifluoroethyl]-3-fluorophenyl}ethyl)-1-(4-fluorophenyl)-4α-methyl-1,4,4α,5,6,7-hexahydrocyclopenta[f]indazol-5-ol], the EC50 at human GR [1] (Table 1, U937 cells) is 207 nM; on human GR [2], 170 nM. Also, the “GITAR > GRAMM % SEP” value on human GR [1] (Table 1) came out at 33%. The Emax at human GR [1] (setting [3]) was 5 to 100%; at human GR [1] (setting [4]), 76%; on human GR [2] it was 43%.
Turning to `C[C@]12Cc3cnn(-c4ccc(F)cc4)c3C=C1CC[C@@]2(O)CCc1cccc(F)c1[C@@H](N)C(F)(F)F` [Example 152, (4αS,5R)-5-(2-{2-[(1R)-1-amino-2,2,2-trifluoroethyl]-3-fluorophenyl}ethyl)-1-(4-fluorophenyl)-4α-methyl-1,4,4α,5,6,7-hexahydrocyclopenta[f]indazol-5-ol], the EC50 on human GR [1] (Table 1, U937 cells) came out at 247 nM; on human GR [2] it was 223 nM. On human GR [1] (Table 1), the “GITAR > GRAMM % SEP” value is 34%. In addition, the Emax on human GR [1] (setting [3]) was 5 to 100%; on human GR [1] (setting [4]), 77%; at human GR [2] it was 44%.
For `C[C@]12Cc3cnn(-c4ccc(F)cc4)c3C=C1CC[C@@]2(O)CCc1ccccc1C(=O)N1CC(=O)C1` [Example 156, 1-(2-{2-[(4αS,5R)-1-(4-fluorophenyl)-5-hydroxy-4α-methyl-1,4,4α,5,6,7-hexahydrocyclopenta[f]indazol-5-yl]ethyl}benzoyl)azetidin-3-one], the EC50 was determined as 189 nM on human GR [1] (Table 1, U937 cells) and 278 nM at human GR [2]. In addition, the “GITAR > GRAMM % SEP” value on human GR [1] (Table 1) is reported as 22%. Also, the figures for the Emax at human GR [1] (setting [3]), at human GR [1] (setting [4]) and at human GR [2] were 5 to 100%, 69% and 47%, respectively.
